Marks after values point to notes of the source that are not given here.
Tested on: brain of rats subjected to severe traumatic brain injury (sTBI)
Assay: HPLC of purine-pyrimidine metabolites (energy state, oxidative/nitrosative stress) in brain after sTBI (Example 1)
Format: in vivo, rat
Conditions: sacrifice day 7
Protocol: They were divided into three groups:
1) n=6 animals subjected to sTBI, with drug administration after 30 minutes and sacrifice at 2 days post-TBI (Acute phase 1)
2) n=6 animals subjected to sTBI, with drug administration after 30 minutes and sacrifice at 7 days post-TBI (Acute phase 2).
3) n=6 animals subjected to sTBI, with drug administration after 3 days and sacrifice at 7 days post-TBI (Chronic phase).
The drug treatment was a subcutaneous injection of 0.5 ml of LMW-DS (15 mg/kg) and administered according to the aforementioned schematic protocol.
After the wet weight (w.w.) determination, tissue preparation was affected as previously disclosed (Tavazzi et al., Neurosurgery. 2005; 56: 582-589; Vagnozzi et al., Neurosurgery. 2007; 61: 379-388; Tavazzi et al., Neurosurgery. 2007; 61: 390-395; Amorini et al., J Cell Mol Med. 2017; 21: 530-542.). Briefly, whole brain homogenization was performed with 7 ml of ice-cold, nitrogen-saturated, precipitating solution composed by CH3CN+10 mM KH2PO4, pH 7.40, (3:1; v:v), and using an Ultra-Turrax set at 24,000 rpm/min (Janke & Kunkel, Staufen, Germany). After centrifugation at 20,690×g, for 10 min at 4° C., the clear supernatants were saved, pellets were supplemented with 3 ml of the precipitating solution and homogenized again as described above. A second centrifugation was performed (20,690×g, for 10 min at 4° C.), pellets were saved, supernatants combined with those previously obtained, extracted by vigorous agitation with a double volume of HPLC-grade CHCl3 and centrifuged as above. The upper aqueous phases containing water-soluble low-molecular weight compounds were collected, subjected to chloroform washings for two more times (this procedure allowed the removal of all the organic solvent and of any lipid soluble compound from the buffered tissue extracts), adjusted in volumes with 10 mM KH2PO4, pH 7.40, to have ultimately aqueous 10% tissue homogenates and saved at −80° C. until assayed.
Aliquots of each deproteinized tissue samples were filtered through a 0.45 μm HV Millipore filter and loaded (200 μl) onto a Hypersil C-18, 250×4.6 mm, 5 μm particle size column, provided with its own guard column (Thermo Fisher Scientific, Rodano, Milan, Italy) and connected to an HPLC apparatus consisting of a Surveyor System (Thermo Fisher Scientific, Rodano, Milan, Italy) with a highly sensitive diode array detector (equipped with a 5 cm light path flow cell) and set up between 200 and 300 nm wavelength. Data acquisition and analysis were performed by a PC using the ChromQuest® software package provided by the HPLC manufacturer.
Metabolites belonging to the purine-pyrimidine profiles (listed below) and related to tissue energy state, mitochondrial function and relative to oxidative-nitrosative stresses were separated, in a single chromatographic run, according to slight modifications of existing ion-pairing HPLC methods (Lazzarino et al., Anal Biochem. 2003; 322: 51-59; Tavazzi et al., Clin Biochem. 2005; 38: 997-1008). Assignment and calculation of the compounds of interest in chromatographic runs of tissue extracts were carried out at the proper wavelengths (206, 234 and 260 nm) by comparing retention times, absorption spectra and areas of peaks with those of peaks of chromatographic runs of freshly-prepared ultra-pure standard mixtures with known concentrations. […]

[1] = Acute phase 2: 15 mg/kg s.c. 30 min post-sTBI
[2] = Chronic phase: 15 mg/kg s.c. 3 days post-sTBI

## sodium salt of dextran sulfate [LMW-DS]
[1]
  NO2 brain concentration: 226.40 ± 30.95^b nmol/g (w.w.)
  NO3 brain concentration: 198.56 ± 25.93^e, i nmol/g (w.w.)
  UDP brain concentration: 40.38 ± 8.50^a, i nmol/g (w.w.)
  UDP-Gal brain concentration: 145.14 ± 27.76 nmol/g (w.w.)
  UDP-GalNac brain concentration: 19.90 ± 3.12^a, e nmol/g (w.w.)
  UDP-Glc brain concentration: 44.44 ± 7.59^j nmol/g (w.w.)
  UDP-GlcNac brain concentration: 130.65 ± 28.41^a nmol/g (w.w.)
  UMP brain concentration: 138.73 ± 32.01^b nmol/g (w.w.)
  UTP brain concentration: 146.71 ± 32.68^e nmol/g (w.w.)
  acetyl-CoA brain concentration: 36.86 ± 4.11^e nmol/g (w.w.)
  adenine brain concentration: 58.16 ± 6.36^a, f nmol/g (w.w.)
  ascorbic acid brain concentration: 3512.58 ± 224.62^a, e nmol/g (w.w.)
  creatinine brain concentration: 37.27 ± 5.82^a, e, j nmol/g (w.w.)
  cytidine brain concentration: 16.18 ± 4.21^e nmol/g (w.w.)
  cytosine brain concentration: 15.70 ± 4.10^f nmol/g (w.w.)
  guanine brain concentration: 4.73 ± 1.07 nmol/g (w.w.)
  guanosine brain concentration: 17.90 ± 3.24^j nmol/g (w.w.)
  hypoxanthine brain concentration: 12.90 ± 2.58^a, j nmol/g (w.w.)
  inosine brain concentration: 85.52 ± 20.36^e nmol/g (w.w.)
  malonyl-CoA brain concentration: 11.29 ± 2.27^b nmol/g (w.w.)
  orotic acid brain concentration: 13.34 ± 3.65^a nmol/g (w.w.)
  thymidine brain concentration: 0.49 ± 0.20^f nmol/g (w.w.)
  uracil brain concentration: 19.40 ± 7.52^a, e nmol/g (w.w.)
  uric acid brain concentration: 19.17 ± 2.15^a, h, i nmol/g (w.w.)
  uridine brain concentration: 63.02 ± 9.66^b, e nmol/g (w.w.)
  xanthine brain concentration: 10.41 ± 2.11^f nmol/g (w.w.)
  β-pseudouridine brain concentration: 13.26 ± 3.16^a, e, j nmol/g (w.w.)
[2]
  ADO brain concentration: 89.97 ± 12.98^a nmol/g (w.w.)
  ADP brain concentration: 315.53 ± 46.53^a nmol/g (w.w.)
  ADP-ribose brain concentration: 173.94 ± 8.45^a nmol/g (w.w.)
  AMP brain concentration: 90.01 ± 21.24^a nmol/g (w.w.)
  ATP brain concentration: 1381.03 ± 212.64^a nmol/g (w.w.)
  CDP brain concentration: 23.55 ± 6.45^a nmol/g (w.w.)
  CDP choline brain concentration: 8.37 ± 2.19 nmol/g (w.w.)
  CMP brain concentration: 20.51 ± 3.73^a, f nmol/g (w.w.)
  CTP brain concentration: 25.23 ± 2.93^a, f nmol/g (w.w.)
  CoA-SH brain concentration: 27.58 ± 6.24^f nmol/g (w.w.)
  GDP brain concentration: 173.05 ± 28.68^a, e nmol/g (w.w.)
  GDP glucose brain concentration: 43.85 ± 5.06^b nmol/g (w.w.)
  GMP brain concentration: 148.56 ± 31.21^a nmol/g (w.w.)
  GSH brain concentration: 2608.67 ± 358.07^a, e nmol/g (w.w.)
  GSSG brain concentration: 231.08 ± 44.34^b, f nmol/g (w.w.)
  GTP brain concentration: 290.92 ± 34.68^a, f nmol/g (w.w.)
  IMP brain concentration: 99.29 ± 13.82^a nmol/g (w.w.)
  MDA brain concentration: 11.62 ± 3.90^a, e nmol/g (w.w.)
  NAA brain concentration: 6375.36 ± 974.12^a, e nmol/g (w.w.)
  NADH brain concentration: 11.78 ± 3.32^e nmol/g (w.w.)
  NADPH brain concentration: 7.34 ± 2.65^f nmol/g (w.w.)
  NADP^+ brain concentration: 16.44 ± 2.66^a, f nmol/g (w.w.)
  NAD^+ brain concentration: 301.13 ± 29.90^a nmol/g (w.w.)
  NO2 brain concentration: 217.67 ± 55.04^a nmol/g (w.w.)
  NO3 brain concentration: 241.27 ± 18.84^e nmol/g (w.w.)
  UDP brain concentration: 57.40 ± 5.88^a, f nmol/g (w.w.)
  UDP-Gal brain concentration: 122.29 ± 12.15 nmol/g (w.w.)
  UDP-GalNac brain concentration: 21.84 ± 2.80^a, e nmol/g (w.w.)
  UDP-Glc brain concentration: 35.79 ± 3.45^b nmol/g (w.w.)
  UDP-GlcNac brain concentration: 129.42 ± 15.88^b nmol/g (w.w.)
  UMP brain concentration: 103.11 ± 29.79 nmol/g (w.w.)
  UTP brain concentration: 136.80 ± 33.25^f nmol/g (w.w.)
  acetyl-CoA brain concentration: 35.68 ± 6.55^e nmol/g (w.w.)
  adenine brain concentration: 52.94 ± 8.59^a, f nmol/g (w.w.)
  ascorbic acid brain concentration: 3375.03 ± 856.41^a, e nmol/g (w.w.)
  creatinine brain concentration: 51.25 ± 10.17^a, f nmol/g (w.w.)
  cytidine brain concentration: 14.71 ± 2.83^e nmol/g (w.w.)
  cytosine brain concentration: 15.58 ± 2.50^b, f nmol/g (w.w.)
  guanine brain concentration: 5.31 ± 1.04^b nmol/g (w.w.)
  guanosine brain concentration: 28.87 ± 7.60^a, f nmol/g (w.w.)
  hypoxanthine brain concentration: 17.97 ± 4.49^a nmol/g (w.w.)
  inosine brain concentration: 105.81 ± 25.57^f nmol/g (w.w.)
  malonyl-CoA brain concentration: 10.00 ± 1.95^b nmol/g (w.w.)
  orotic acid brain concentration: 12.05 ± 1.50^a nmol/g (w.w.)
  thymidine brain concentration: 0.71 ± 0.11 nmol/g (w.w.)
  uracil brain concentration: 16.57 ± 2.99^a, f nmol/g (w.w.)
  uric acid brain concentration: 27.77 ± 3.60^a nmol/g (w.w.)
  uridine brain concentration: 63.28 ± 3.37^f nmol/g (w.w.)
  xanthine brain concentration: 9.35 ± 0.83^f nmol/g (w.w.)
  β-pseudouridine brain concentration: 18.62 ± 2.80^a nmol/g (w.w.)

From US20220128542A1, “TREATMENT EFFICIENCY EVALUATION” (TX MEDIC AB, priority 2019, published 2022)
